Data reported in patent US20220168392A1 (priority 2019, published 2022).
“And” between values parts separate entries of the source, which are not always exact repeats. Equal entries are not always repeated. Square brackets hold non-standard residues; d marks the D form. * marks the point of attachment. 2Nal = N[C@@H](Cc1ccc2ccccc2c1)C(=O)O; Propionyl = CCC(=O)*; Sar = CNCC(=O)O

How the values were obtained:
[1] = test system: CD2F1 male mice exposed to TBI; experiment: 30-day survival after total body irradiation (TBI) in CD2F1 mice; format: in vivo, mouse; conditions: for Survival Differential (Treatment-Vehicle) / Survival treatment: CD2F1 M; for Dose Reduction Factor: male CD2F1
healthy men = experiment: Study NAP1001: single IV dose in healthy men (platelet counts, safety); format: in vivo, human; design: key to pharmacodynamics (PD) effect class of the dose (beneficial effects on survival): **: large pharmacodynamics (PD) effect; *: modest effect; conditions: for Humans Max Platelet Ratio: NAP 1001
Protocol: In the FIH, single dose, Phase 1 clinical study NAP1001, 40 healthy men were enrolled, and 30 subjects received a single IV dose of RWJ-800088 as a 5-mg/mL solution in saline (dose range 0.375 to 3 μg/kg); 10 subjects received placebo. […] Thirty-three (83%) of 40 subjects reported at least 1 treatment-emergent adverse event throughout the study. Similar proportions of subjects reported treatment-emergent adverse events following administration of placebo (9 [90%] of 10 subjects) and RWJ-800088 (24 [80%] of 30 subjects). […] Mean platelet counts increased with increasing RWJ-800088 dose compared with placebo from Day 6 onwards, peaking at Days 10 to 12 before gradually returning to baseline by Day 21 (FIG. 19).
The ratio of the maximum platelet counts to the baseline platelet counts following single escalating doses of RWJ-800088 to mice, rats, dogs, rhesus monkeys and human healthy volunteers is shown in Table 5. The dose required to achieve a 2-3.5-fold elevation in humans is ˜100-fold lower compared to mice, ˜1,000-fold lower compared to rats and >10,000-fold lower compared to canines and NHPs. […] The species differences in potency has been described for other TPO mimetics in the literature and is attributed to differences in receptor affinity (Erickson-Miller C L, et al. Discovery and characterization of a selective, nonpeptidyl thrombopoietin receptor agonist. Exp. Hematol. 2005; 33:85-93). […] It is discovered that the dose of RWJ-800088 that produces a survival benefit and protects against vascular and organ injury is the dose that produces a 2-4 fold elevation of platelets (Table 6).

[2] = 9.25 Gy, 0.3 mg/kg single dose, Post 4 hr
[3] = 9.25 Gy, 0.3 mg/kg single dose, Pre −24 hr
[4] = 9.3 Gy, 0.3 mg/kg single dose, Post 24 hr
[5] = 9.3 Gy, 1 mg/kg single dose, Post 24 hr
[6] = 9.35 Gy, 0.1 mg/kg single dose, Post 24 hr
[7] = 9.35 Gy, 0.3 mg/kg single dose, Post 24 hr, listed as TPOm, 0.3 mg/kg
[8] = 9.35 Gy, 0.3 mg/kg, 2 doses 12 hours apart, Post, first dose 24 hr
[9] = 9.35 Gy, 0.3 mg/kg, 3 doses 8 hours apart, Post, first dose 24 hr
[10] = 9.35 Gy, 1 mg/kg single dose, Post 24 hr
[11] = 9.35 Gy, 2 mg/kg single dose, Post 24 hr
[12] = 9.35 Gy, 3 mg/kg single dose, Post 24 hr
[13] = 9.75 Gy, 0.1 mg/kg single dose, Post 4 hr
[14] = 9.75 Gy, 0.1 mg/kg single dose, Pre −24 hr
[15] = 9.75 Gy, 0.3 mg/kg single dose, Post 4 hr
[16] = 9.75 Gy, 0.3 mg/kg single dose, Pre −2 hr
[17] = 9.75 Gy, 0.3 mg/kg single dose, Pre −12 hr
[18] = 9.75 Gy, 0.3 mg/kg single dose, Pre −24 hr, listed as TPOm, 0.3 mg/kg
[19] = 9.75 Gy, 1 mg/kg single dose, Post 4 hr, listed as TPOm, 1 mg/kg
[20] = 9.75 Gy, 1 mg/kg single dose, Post 8 hr
[21] = 9.75 Gy, 1 mg/kg single dose, Post 12 hr
[22] = 9.75 Gy, 1 mg/kg single dose, Pre −24 hr
[23] = 9.75 Gy, 2 mg/kg single dose, Pre −24 hr
[24] = 9.75 Gy, 3 mg/kg single dose, Post 4 hr
[25] = 9.75 Gy, 3 mg/kg single dose, Pre −24 hr
[26] = 10.5 Gy, 0.1 mg/kg single dose, Pre −24 hr
[27] = 10.5 Gy, 0.3 mg/kg single dose, Pre −24 hr
[28] = 10.5 Gy, 1 mg/kg single dose, Pre −24 hr
[29] = 10.5 Gy, 3 mg/kg single dose, Pre −24 hr, listed as TPOm, 3 mg/kg
[30] = 11 Gy, 1 mg/kg single dose, Pre −2 hr
[31] = 11 Gy, 1 mg/kg single dose, Pre −12 hr
[32] = 11 Gy, 1 mg/kg single dose, Pre −24 hr, listed as TPOm, 1 mg/kg
[33] = 11.5 Gy, 3 mg/kg single dose, Pre −24 hr
[34] = 11.75 Gy, 3 mg/kg single dose, Pre −24 hr
[35] = 12 Gy, 1 mg/kg single dose, Pre −24 hr
[36] = 12 Gy, 3 mg/kg single dose, Pre −24 hr
[37] = 12.5 Gy, 1 mg/kg single dose, Pre −24 hr
[38] = 12.5 Gy, 3 mg/kg single dose, Pre −24 hr
[39] = 13 Gy, 1 mg/kg single dose, Pre −24 hr
[40] = 13.5 Gy, 1 mg/kg single dose, Pre −24 hr
[41] = 14 Gy, 1 mg/kg single dose, Pre −24 hr

## methoxypolyethyleneglycol20000-propionyl-L-Isoleucyl-L-Glutamyl-Glycyl-L-Prolyl-L-Threonyl-L-Leucyl-L-Arginyl-L-Glutaminyl-L-2-Naphthylalanyl-L-Leucyl-L-Alanyl-L-Alanyl-L-Arginyl-Sarcosyl-Ne-(methoxypolyethyleneglycol20000-propionyl-L-Isoleucyl-L-Glutamyl-Glycyl-L-Prolyl-L-Threonyl-L-Leucyl-L-Arginyl-L-Glutaminyl-L-2-Naphthylalanyl-L-Leucyl-L-Alanyl-L-Alanyl-L-Arginyl-Sarcosyl-)-Lysinamide ({mPEG 20 kDa-Propionyl}-IEGPTLRQ[2Nal]LAAR[Sar]K-NH2; also: dimer: second identical mPEG-propionyl chain on Lys Nε of C-terminal lysinamide) [RWJ-800088]
[1]; CD2F1, 24 hours post-TBI (9.3 Gy), doses 0.1 to 3 mg/kg (FIG. 12A)
  dose dependence of survival: increase in survival from 0.1 to 1 mg/kg and then a slight reduction in the survival benefit at 2 and 3 mg/kg
[1]; [2]
  Survival Differential (Treatment-Vehicle): 53%
  Survival treatment: 88%
[1]; [3]
  Survival Differential (Treatment-Vehicle): 41%
  Survival treatment: 83%
[1]; [4]
  Survival Differential (Treatment-Vehicle): 42%
  Survival treatment: 71%
[1]; [5]
  Survival Differential (Treatment-Vehicle): 50%
  Survival treatment: 79%
[1]; [6]
  Survival Differential (Treatment-Vehicle): 25%
  Survival treatment: 58%
[1]; 9.35 Gy, 0.3 mg/kg single dose, Post 24 hr, 0.3 mg/kg
  Survival treatment: 71%
[1]; [7]
  Survival Differential (Treatment-Vehicle): 25% and 17%
  Survival treatment: 58% and 71%
[1]; [8]
  Survival Differential (Treatment-Vehicle): 21%
  Survival treatment: 54%
[1]; [9]
  Survival Differential (Treatment-Vehicle): 8%
  Survival treatment: 50%
[1]; [10]
  Survival Differential (Treatment-Vehicle): 29%
  Survival treatment: 63%
[1]; [11]
  Survival Differential (Treatment-Vehicle): 17%
  Survival treatment: 50%
[1]; [12]
  Survival Differential (Treatment-Vehicle): 13%
  Survival treatment: 46%
[1]; [13]
  Survival Differential (Treatment-Vehicle): 21%
  Survival treatment: 42%
[1]; [14]
  Survival Differential (Treatment-Vehicle): 92%
  Survival treatment: 92%
[1]; [15]
  Survival Differential (Treatment-Vehicle): 42%
  Survival treatment: 63%
[1]; [16]
  Survival Differential (Treatment-Vehicle): 58%
  Survival treatment: 92%
[1]; [17]
  Survival Differential (Treatment-Vehicle): 96%
  Survival treatment: 100%
[1]; [18]
  Survival Differential (Treatment-Vehicle): 92% and 96%
  Survival treatment: 92% and 100%
[1]; [19]
  Survival Differential (Treatment-Vehicle): 67% and 60%
  Survival treatment: 88% and 80%
[1]; [20]
  Survival Differential (Treatment-Vehicle): 80%
  Survival treatment: 90%
[1]; [21]
  Survival Differential (Treatment-Vehicle): 50%
  Survival treatment: 70%
[1]; [22]
  Survival Differential (Treatment-Vehicle): 92%
  Survival treatment: 92%
[1]; [23]
  Survival Differential (Treatment-Vehicle): 96%
  Survival treatment: 96%
[1]; [24]
  Survival Differential (Treatment-Vehicle): 33%
  Survival treatment: 54%
[1]; [25]
  Survival Differential (Treatment-Vehicle): 100%
  Survival treatment: 100%
[1]; [26]
  Survival Differential (Treatment-Vehicle): 90%
  Survival treatment: 90%
[1]; [27]
  Survival Differential (Treatment-Vehicle): 95%
  Survival treatment: 95%
[1]; [28]
  Survival Differential (Treatment-Vehicle): 100%
  Survival treatment: 100%
[1]; [29]
  Survival Differential (Treatment-Vehicle): 90% and 100%
  Survival treatment: 90% and 100%
[1]; 11 Gy, 0.1 mg/kg single dose, Pre −24 hr
  Survival Differential (Treatment-Vehicle): 54%
[1]; 11 Gy, 0.1 mg/kg single dose, Pre −24 hr, 0.1 mg/kg
  Survival treatment: 54%
[1]; 11 Gy, 0.1 mg/kg single dose, Pre −24 hr, listed as TPOm, 0.1 mg/kg
  Survival treatment: 54%
[1]; 11 Gy, 0.3 mg/kg single dose, Pre −24 hr
  Survival Differential (Treatment-Vehicle): 83%
[1]; 11 Gy, 0.3 mg/kg single dose, Pre −24 hr, 0.3 mg/kg
  Survival treatment: 83%
[1]; 11 Gy, 0.3 mg/kg single dose, Pre −24 hr, listed as TPOm, 0.3 mg/kg
  Survival treatment: 83%
[1]; [30]
  Survival Differential (Treatment-Vehicle): 17%
  Survival treatment: 17%
[1]; [31]
  Survival Differential (Treatment-Vehicle): 100%
  Survival treatment: 100%
[1]; 11 Gy, 1 mg/kg single dose, Pre −24 hr, 1 mg/kg
  Survival treatment: 96%
[1]; [32]
  Survival Differential (Treatment-Vehicle): 71% and 96% and 100%
  Survival treatment: 71% and 96% and 100%
[1]; 11 Gy, 3 mg/kg single dose, Pre −24 hr
  Survival Differential (Treatment-Vehicle): 100%
[1]; 11 Gy, 3 mg/kg single dose, Pre −24 hr, 3 mg/kg
  Survival treatment: 100%
[1]; 11 Gy, 3 mg/kg single dose, Pre −24 hr, listed as TPOm, 3 mg/kg
  Survival treatment: 100%
[1]; [33]
  Survival Differential (Treatment-Vehicle): 92%
  Survival treatment: 92%
[1]; [34]
  Survival Differential (Treatment-Vehicle): 75%
  Survival treatment: 75%
[1]; [35]
  Survival Differential (Treatment-Vehicle): 88%
  Survival treatment: 88%
[1]; [36]
  Survival Differential (Treatment-Vehicle): 83%
  Survival treatment: 83%
[1]; [37]
  Survival Differential (Treatment-Vehicle): 54%
  Survival treatment: 54%
[1]; [38]
  Survival Differential (Treatment-Vehicle): 46%
  Survival treatment: 46%
[1]; [39]
  Survival Differential (Treatment-Vehicle): 42%
  Survival treatment: 42%
[1]; [40]
  Survival Differential (Treatment-Vehicle): 13%
  Survival treatment: 13%
[1]; [41]
  Survival Differential (Treatment-Vehicle): 1%
  Survival treatment: 1%
[1]; CD2F1 male, 1 mg/kg administered 24 h prior to radiation exposure (FIG. 13)
  enhancement in survival efficacy: ~100%
[1]; CD2F1 male, 9.35 Gy, 0.3 mg/kg 24 h pre-TBI (FIG. 3A)
  survival: 83%
[1]; CD2F1 male, 9.35 Gy, 0.3 mg/kg/dose SC at 24 h+48 h+72 h post-TBI
  survival, 3-dose regimen: 50%
[1]; CD2F1 male, 9.35 Gy, 0.3 mg/kg/dose SC at 24 h+48 h post-TBI
  survival, 2-dose regimen: 54%
[1]; CD2F1 male, 9.75 Gy, RWJ-800088 treated groups 0.1-3 mg/kg 24 h pre-TBI (FIG. 3B)
  survival: 92-100%
[1]; CD2F1 male, 10.5 Gy, range of doses 0.1-3 mg/kg 24 h pre-TBI (FIG. 3C)
  percent survival: 90-100%
[1]; Mice, whole body irradiation, whole wrapped cell: Enhanced survival, mitigation against thrombocytopenia, anemia, reduced adhesion protein expression on endothelial cells
  Effects: Enhanced survival,
[1]; 1 mg/kg 24 h post-TBI (FIG. 14)
  Dose Reduction Factor: 1.05
[1]; 1 mg/kg 24 h pre-TBI (FIG. 15)
  Dose Reduction Factor: 1.38
[1]; post-TBI administration
  optimum single dose as mitigator of radiation induced mortality in mice: 0.3 to 1.0 mg/kg
Healthy men; 24 of 30 subjects, single IV dose 0.375 to 3 μg/kg
  subjects reporting treatment-emergent adverse events: 80%
Healthy men; Human, dose 3 μg/kg
  Average of the Maximum Platelet Elevation/Baseline Platelet Counts: 3.3
Healthy men; Humans
  Dose for 2.0-4x Platelet Elevation in Healthy Subjects: ≥0.00225 mg/kg
Healthy men; Humans, dose 2.25 μg/kg
  pharmacodynamics (PD) effect class of the dose (beneficial effects on survival): **
Healthy men; Humans, dose 3 μg/kg
  pharmacodynamics (PD) effect class of the dose (beneficial effects on survival): **
Healthy men; dose 0.375 μg/kg
  Humans Max Platelet Ratio: 1.4 ± 0.3
Healthy men; dose 0.75 μg/kg
  Humans Max Platelet Ratio: 1.8 ± 0.4
Healthy men; dose 1.5 μg/kg
  Humans Max Platelet Ratio: 1.9 ± 0.7
Healthy men; dose 2.25 μg/kg
  Humans Max Platelet Ratio: 2.1 ± 0.8
Healthy men; dose 3 μg/kg
  Humans Max Platelet Ratio: 3.1 ± 1.1
Healthy men; humans, 3 μg/kg (FIG. 19)
  enhancement of platelets over background: 3.5 fold
Healthy men; single IV dose 0.375 to 3 μg/kg
  incidence of adverse events, dose relation: not dose related
Healthy men; single IV doses up to and including 3 μg/kg, healthy men
  tolerability: well tolerated
